Measurements published in patent publication US5162315A, “Penetration enhancers” (priority 1989, dated 1992).

Tests used:
[1] = type: in vitro ADME, human
Method: The compounds of the present invention were tested in vitro as penetration enhancers according to the procedure outlined below.
(§1) Human stratum corneum was isolated from full thickness human skin as described by Bronaugh et al., J. Pharm. Sci. 75, 1094 (1986). The skin was placed between the donor and the receptor compartments of diffusion cells in such a way that the dermal side of the skin faced the receptor compartment which was filled with normal saline (pH 7.2-7.4). The stratum corneum was equilibrated at 37° C. overnight prior to the application of a topical formulation or transdermal patch. All formulations were studied in triplicate.
(§2) About 500 mg of the following three Isosorbide Dinitrate (ISDN) formulations (40% ISDN & 60% Lactose) were applied to cover the stratum corneum surface within the donor compartment. The entire contents of the receptor compartment were removed at specific time intervals over 48 hours and replenished with fresh saline. The aliquots were analyzed by HPLC and the average cumulative amount of ISDN in micrograms permeating over the study period was calculated.
Procedure of Example 8 was repeated with the following

[2] = type: in vitro ADME, human; remark: listed apart in the source
Method: The compounds of the present invention were tested in vitro as penetration enhancers according to the procedure outlined below. The penetration enhancers were formulated with pharmacologically active agents in creams and permeation of the active agent through human stratum corneum in vitro was compared to control formulation without enhancer. Higher permeation of the active agent in presence of an enhancer exemplified the invention.
as §1, §2
Procedure of Example 8 was repeated with the following Haloperiodol Decanoate (HD) cream formulations. Saline in the receptor compartment was substituted with saline/isopropyl alcohol (1:1).

Average Cumulative Amount of HC in Micrograms permeating over 48 hours [1] [Micrograms]	HC permeation enhancement compared to cyclic isomer [1]	Average Cumulative Amount of HD in Micrograms permeating over 51 hours [2] [Micrograms]	SMILES	HC permeation compared to control cream [1]	HD permeation compared to control [2]
67.53 ± 3.34	–	–	CCCCCCCCCCCC1=NCCN1CCO [1-(2-hydroxyethyl)-2-undecyl-2-imidazoline, reference compound]	–	–
55.19 ± 5.16	as effective as its cyclic isomer	–	CCCCCCCCCCCC(=O)NCCNCCO [Example 1, N-[2-(2-hydroxyethyl)aminoethyl]dodecanamide]	superior permeation as compared to control cream	–
–	–	936.66 ± 16.98	CCCCCCCCCCCC(=O)N1CCN(CCO)CC1 [Example 5, 1-(1-oxododecyl)-4-(2-hydroxyethyl)piperazine]	–	higher HD permeation as compared to control
–	–	617.68 ± 17.68	CCCCCCCCCC(=O)OC1(c2ccc(Cl)cc2)CCN(CCCC(=O)c2ccc(F)cc2)CC1 [HD, Haloperiodol Decanoate, reference compound]	–	–
